Measured values as given in ChEMBL document CHEMBL5500418, “Structure-Activity Study on Substituted, Core-Extended, and Dyad Naphthalene Diimide G-Quadruplex Ligands Leading to Potent Antitrypanosomal Agents” (J Med Chem, 2024).

What was measured:
[1] = Selectivity index, ratio of IC50 for human MRC5 to IC50 for Trypanosoma brucei measured after 72 hrs by alamar blue assay; assay type: toxicity; details: MRC5 cells, read-out: Ratio IC50
[2] = Selectivity index, ratio of IC50 for human MRC5 to IC50 for Leishmania major measured after 72 hrs by MTT assay; assay type: toxicity; details: MRC5 cells, read-out: Ratio IC50
[3] = test system: Quadruplex DNA; experiment: Stabilization of 22AG G4 DNA (unknown origin) assessed as change in melting temperature at 1 uM by FRET assay; assay type: nucleic-acid assay
[4] = test system: Quadruplex DNA; experiment: Stabilization of Trypanosoma brucei ERB1 G4 DNA assessed as change in melting temperature at 1 uM by FRET assay; assay type: nucleic-acid assay
[5] = Cytotoxicity against human MRC5 cells incubated for 72 hrs by alamar blue staining based assay; assay type: toxicity, cell-based
[6] = test system: Trypanosoma brucei; experiment: Trypanocidal activity against bloodstream-stage Trypanosoma brucei measured after 72 hrs by CellTiter-Glo luminescent assay; assay type: functional, organism-based
[7] = Selectivity index, ratio of IC50 for human MRC5 to IC50 for Trypanosoma brucei measured after 72 hrs by CellTiter-Glo luminescent assay; assay type: toxicity; details: MRC5 cells, read-out: Ratio IC50
[8] = test system: Trypanosoma brucei; experiment: Antitrypanosomal activity against bloodstream-stage Trypanosoma brucei measured after 72 hrs by alamar blue assay; assay type: functional, organism-based
[9] = test system: Leishmania major; experiment: Antileishmanial activity against Leishmania major promastigotes MHOM/IL/80/Friedlin measured after 72 hrs by MTT assay; assay type: functional, organism-based
[10] = test system: Trypanosoma brucei; experiment: Antitrypanosomal activity against Trypanosoma brucei; assay type: functional, organism-based
[11] = test system: Quadruplex DNA; experiment: Stabilization of Trypanosoma brucei ERB1 G4 DNA assessed as change in melting temperature at 292 nm wavelength at 5 uM by CD spectroscopy; assay type: nucleic-acid assay
[12] = Drug uptake in human MRC5 cells at 4 to 37 degreeC at 5 uM after 30 to 120 mins by flow cytometry analysis; assay type: ADME, cell-based; details: mrc5, 5 µM, time 30-120 min
[13] = test system: Quadruplex DNA; experiment: Stabilization of 22AG G4 DNA (unknown origin) assessed as change in melting temperature at 292 nm wavelength at 5 uM by CD spectroscopy; assay type: nucleic-acid assay
[14] = test system: Quadruplex DNA; experiment: Stabilization of Trypanosoma brucei ERB1 G4 DNA assessed as change in melting temperature at 265 nm wavelength at 5 uM by CD spectroscopy; assay type: nucleic-acid assay
[15] = test system: Quadruplex DNA; experiment: Stabilization of 22AG G4 DNA (unknown origin) assessed as change in melting temperature at 265 nm wavelength at 5 uM by CD spectroscopy; assay type: nucleic-acid assay
[16] = Drug localization in Trypanosoma brucei at 5 uM after 120 mins by DAPI staining based fluorescence microscopy analysis; assay type: ADME; details: 2 h
[17] = Drug localization in Trypanosoma brucei kinetoplast at 37 degreeC at 5 uM after 30 mins by DAPI staining based fluorescence microscopy analysis; assay type: ADME, subcellular; details: 0.5 h
[18] = Drug localization in human MRC5 cells cytoplasm at 37 degreeC at 5 uM after 30 mins by DAPI staining based fluorescence microscopy analysis; assay type: ADME, subcellular; details: mrc5, 0.5 h
[19] = Drug localization in human MRC5 cells nucleus at 37 degreeC at 5 uM after 30 mins by DAPI staining based fluorescence microscopy analysis; assay type: ADME, subcellular; details: mrc5, 0.5 h
[20] = Drug localization in Trypanosoma brucei nucleus at 37 degreeC at 5 uM after 30 mins by DAPI staining based fluorescence microscopy analysis; assay type: ADME, subcellular; details: 0.5 h
[21] = Drug uptake in Trypanosoma brucei at 4 to 37 degreeC at 5 uM after 30 to 120 mins by flow cytometry analysis; assay type: ADME; details: time 30-120 min

ΔTm [3] [°C] | ΔTm [4] [°C] | IC50 [8] [nM] | Compound | selectivity ratio at 72 h [1] | selectivity ratio at 72 h [2] | IC50 at 72 h [5] [nM] | IC50 [9] [nM] | other results
-2.2 | 2.1 | 290 | O=c1c2ccc3c(=O)n(CCOCCO)c(=O)c4c5[nH]c6ccccc6[nH]c5c(c(=O)n1CCOCCO)c2c34 | 6.2 | < 0.018 | 1800 | > 100000 | IC50 [6]: 130 nM; selectivity ratio at 72 h [7]: 13.8
18.3 | > 30 | 8500 | CN(C)CCCNc1cc2c3c(c(NCCCCCCCNc4cc5c6c(ccc7c6c4C(=O)N(CCCN(C)C)C7=O)C(=O)N(CCCN(C)C)C5=O)cc4c3c1C(=O)N(CCCN(C)C)C4=O)C(=O)N(CCCN(C)C)C2=O | 7.8 | < 0.66 | 66300 | > 100000 | 
 |  |  | N=C(N)c1ccc(OCCCCCOc2ccc(C(=N)N)cc2)cc1 [PENTAMIDINE] |  |  |  |  | IC50 [10]: 0.2 nM
> 30 | > 30 | 0.09 | CCCNC(=O)c1ccc2[nH]c3c([nH]c2c1)c1c(=O)n(CCCN(C)C)c(=O)c2ccc4c(=O)n(CCCN(C)C)c(=O)c3c4c21 | 422 | 0.12 | 38 | 310 | ΔTm [11]: 26 °C; Drug uptake [12]: Active; ΔTm [13]: 14.8 °C; ΔTm [14]: 22.7 °C; ΔTm [15]: > 30 °C; Drug uptake [16]: Active; IC50 [6]: 0.011 nM; Drug uptake [17]: Not Active; selectivity ratio at 72 h [7]: 3450; Drug uptake [18]: Not Active; Drug uptake [19]: Active; Drug uptake [20]: Active; Drug uptake [21]: 20%
3.8 | 7.1 | 550 | CN(C)CCCN1C(=O)c2cc(NCCOCCOCCNc3cc4c5c(c(Br)cc6c5c3C(=O)N(CCCCCC(=O)O)C6=O)C(=O)N(CCCCCC(=O)O)C4=O)c3c4c(cc(Br)c(c24)C1=O)C(=O)N(CCCN(C)C)C3=O | 25 | < 0.14 | 14000 | > 100000 | ΔTm [11]: 3.2 °C; ΔTm [13]: -2.5 °C; ΔTm [14]: 5.2 °C; ΔTm [15]: 4.9 °C
2.3 | 7.4 | 32 | CN(C)CCCN1C(=O)c2ccc3c4c(c(N5CCCCC5)cc(c24)C1=O)C(=O)N(CCCN(C)C)C3=O | 81.3 | 15.3 | 2600 | 170 | 
> 30 | 15 | 15 | CN(C)CCCN1C(=O)c2ccc3c4c(c(NCCCCCCCNc5cc6c7c(ccc8c7c5C(=O)N(CCCN(C)C)C8=O)C(=O)N(CCCN(C)C)C6=O)cc(c24)C1=O)C(=O)N(CCCN(C)C)C3=O | 4 | 0.002 | 62 | 2590 | 
9.6 | 19 | 21500 | CN(C)CCCNc1cc2c3c(ccc4c3c1C(=O)N(CCCN(C)C)C4=O)C(=O)N(CCCN(C)C)C2=O | > 4.6 |  | > 100000 | > 100000 | 
0.3 | 3.5 | 42700 | O=C1c2cc(NCCOCCO)c3c4c(cc(NCCOCCO)c(c24)C(=O)N1CCOCCO)C(=O)N(CCOCCO)C3=O | > 2.3 |  | > 100000 | > 100000 | 
> 30 | 12 |  | CCCNc1cc2c3c(ccc4c3c1C(=O)N(CCCN(C)C)C4=O)C(=O)N(CCCN(C)C)C2=O | 40 | 10.6 |  |  | 
1.9 | 3.6 | 21 | CN(C)CCCNc1cc2c3c(c(N(C)C)cc4c3c1C(=O)N(CCCN(C)C)C4=O)C(=O)N(CCCN(C)C)C2=O | 367 | 2.6 | 7700 | 2960 | ΔTm [11]: 2.7 °C; ΔTm [13]: -1.4 °C; ΔTm [14]: 2.4 °C; ΔTm [15]: 8.9 °C; Drug uptake [21]: 0%
-1.4 | 2.9 | 9500 | O=C1c2ccc3c4c(c(NCCOCCO)cc(c24)C(=O)N1CCOCCO)C(=O)N(CCOCCO)C3=O | > 10.5 | > 6.98 | > 100000 | 14300 | 
> 30 | > 30 | 54 | CN(C)CCCNc1cc2c3c(c(NCCCN(C)C)cc4c3c1C(=O)N(CCCN(C)C)C4=O)C(=O)N(CCCN(C)C)C2=O | 38.9 | 0.18 | 2100 | 11800 | 
5 | 12 | 57 | CN(C)CCCN1C(=O)c2ccc3c4c(c(NCCCO)cc(c24)C1=O)C(=O)N(CCCN(C)C)C3=O | 87.7 | 2 | 5000 | 2490 | 
10 | 11 |  | CN(C)CCCN1C(=O)c2ccc3c4c(c(NCc5cn([C@@H]6O[C@H](CO)[C@@H](O)[C@H](O)[C@H]6O)nn5)cc(c24)C1=O)C(=O)N(CCCN(C)C)C3=O | 47.9 | 4.7 |  |  | 
4.4 | 9.7 | 61 | COCCOCCNc1cc2c3c(ccc4c3c1C(=O)N(CCCN(C)C)C4=O)C(=O)N(CCCN(C)C)C2=O | 80.6 | 1.1 | 5000 | 4420 | 
8.5 | > 30 | 0.26 | CN(C)CCCn1c(=O)c2ccc3c(=O)n(CCCN(C)C)c(=O)c4c5[nH]c6ccccc6[nH]c5c(c1=O)c2c34 | 88 | 11.5 | 23 | 2 | ΔTm [11]: 23 °C; Drug uptake [12]: Active; ΔTm [13]: 3 °C; ΔTm [14]: 25.9 °C; ΔTm [15]: 6.7 °C; IC50 [6]: 0.07 nM; selectivity ratio at 72 h [7]: 328; Drug uptake [21]: 20%
-2.2 | 1.3 | 2500 | O=C1c2ccc3c4c(ccc(c24)C(=O)N1CCOCCO)C(=O)N(CCOCCO)C3=O | 5.8 | 3.85 | 14500 | 3760 | 
2.7 | 8.6 |  | CN(C)CCCN1C(=O)c2ccc3c4c(c(NCc5cn(CCO[C@@H]6O[C@H](CO)[C@@H](O)[C@H](O)[C@H]6O)nn5)cc(c24)C1=O)C(=O)N(CCCN(C)C)C3=O | 41.8 | 1.3 |  |  | 
